Our source for the IC50, response vs control in vivo and melting point values is patent US9199927B2, “Guanidinobenzoic acid compound” (Astellas Pharma Inc., priority 2011, dated 2015).

Structures can show the parent of a compound that is named as a salt.

As a reminder, the IC50 is the concentration that inhibits the measured activity by half. Usually melting point stands for the temperature of the solid-liquid transition.

Data set [1] deals with human recombinant trypsin (r-h trypsin) (Homo sapiens (Human), UniProt P07477). The data set is described as follows: Inhibitory activity of trypsin enzyme (human recombinant trypsin, BZiPAR fluorescent substrate). The format is biochemical. To be noted: human recombinant trypsin 0.088 μg/mL, 30 minutes at room temperature. As to the method:
(§1) 1. Inhibitory Activity of Trypsin Enzyme in Humans and Mice
(§2) In the experiment, human recombinant trypsin (r-h trypsin; manufactured by WAKO, cat. #206-17171) and mouse trypsin (m-trypsin; purified from the mouse small intestine contents by the present Company) were used.
(§3) The outline of the measurement method is shown below.
(§4) The compound was dissolved in dimethyl sulfoxide (DMSO), and diluted to an arbitrary concentration (A). A was 100-fold diluted with a buffer (0.1 M Tris (pH 8.0), 0.15 M NaCl, 10 mM CaCl2, 0.05% Brij38) (B). The r-h trypsin was diluted with a buffer to 0.088 μg/mL, and the m-trypsin was diluted with a buffer to 1/50 (C). […] The substrate solution of a substrate for the enzyme reaction, BZiPAR, (Rhodamine Reference Substrate) was diluted with a buffer to 5 μmol/L (D). B; 5 μL, C; 5 μL, and D; 10 μL were added to a 384-plate, and incubated at room temperature for 30 minutes. The fluorescent signals were detected with Ex/Em=497/520 using Tecan Safire Fluorometer. […] Based on the obtained inhibitory rates, IC50 values (nM) were calculated from the non-linear regression. The test was carried out in the same manner, using camostat as a control compound.
(§5) Ex in the table represents the Example No. as denoted below.

Data set [2] has as its target mouse trypsin (m-trypsin). The data set is described as follows: Inhibitory activity of trypsin enzyme (mouse trypsin purified from small intestine contents, BZiPAR fluorescent substrate). The following applies: mouse trypsin diluted 1/50, BZiPAR substrate, 30 minutes at room temperature. In kind it is biochemical.
Excerpt: as §1, §2
The method to extract the trypsin from the mouse small intestine is shown below.
The small intestine contents and the gastrointestinal tract of 10 mice were suspended in PBS using Polytron and subjected to centrifugation at 15,000×g several times. The supernatant was mixed at 4° C. for 16 hours with a Benzamidine Sepharose 4 Fast Flow Resin (GE Healthcare: #17-5123-10). After washing the resin with PBS, m-trypsin was eluted with a glycine elution buffer (pH 3.0).
as §3, §4, §5

Data set [3] relates to ICR mice. As to the kind of experiment: Increasing study of fecal protein concentration in mice. In kind it is in vivo. The following applies: Mus musculus, 5 mg/kg oral, feces collected 3 to 9 hours after, control = 1, read-out: protein increasing activity in feces, fold vs control. The protocol:
2. Increasing Study of Fecal Protein Concentration in Mice
For the experiment, 6-weeks old ICR mice (male) were used, and the experiment was carried out in five per group. After fasting the mice for 15 hours, the control group was forcibly orally administered with a 0.5% methyl cellulose (MC) solution, and the test drug group was forcibly orally administered (5 mg/kg) with a solution or suspension obtained by dissolving or suspending the compound in the 0.5% MC solution. The fasting was stopped immediately thereafter, free feeding (CE-2) started and then the feces were collected from after 3 hours to after 9 hours. All of the obtained feces were dissolved and suspended in 6 mL of distilled water, and centrifuged for 10 minutes at 3000 rpm. The protein concentration in the supernatant was measured by a Bradford method, and the amount of the protein in 1 g of feces was calculated by dividing the protein concentration in the feces by the total weight of feces. Further, the efficacy was investigated from the ratio to the control. For the compounds that were evaluated multiple times, the average values were calculated.
For some representative compounds, the protein increasing activities in feces are shown in Table 2, assuming a value for the control as 1. Ex in the table represents the Example No. as denoted below of the test compound.

For the compound `CN(C(=O)N(CC(=O)O)Cc1csc(C(=O)O)c1)c1ccc(OC(=O)c2ccc(NC(=N)N)cc2)cc1Cl` [Example 111], the IC50 worked out at 0.54 nM in data set [1] and 0.44 nM in data set [2]. In addition, the response vs control in vivo at 5 mg/kg in data set [3] worked out at 201%.

As for `C[C@H](C(=O)O)N(Cc1csc(C(=O)O)c1)C(=O)c1ccc2cc(OC(=O)c3ccc(NC(=N)N)cc3)ccc2n1` [Example 102], the IC50 in data set [1] was 0.29 nM; in data set [2], 0.3 nM. The response vs control in vivo at 5 mg/kg in data set [3] was 231%.

Take `N=C(N)Nc1ccc(C(=O)Oc2ccc(CCC(=O)N(CC(=O)O)Cc3ccccc3C(=O)O)c(Cl)c2)cc1` [Example 53]: the IC50 turned out to be 0.45 nM in data set [1] and 0.35 nM in data set [2]. The response vs control in vivo at 5 mg/kg in data set [3] turned out to be 179%.

In turn, `N=C(N)Nc1ccc(C(=O)Oc2ccc3nc(C(=O)N(CC(=O)O)Cc4cccc(C(=O)O)c4)ccc3c2)cc1` [Example 4, 3-{[({6-[(4-carbamimidamidobenzoyl)oxy]quinolin-2-yl}carbonyl)(carboxymethyl)amino]methyl}benzoic acid] returned a melting point of 255 °C.

Take `N=C(N)Nc1ccc(C(=O)Oc2ccc3nc(C(=O)N(CC(=O)O)Cc4csc(C(=O)O)c4)ccc3c2)cc1` [Example 80]: the IC50 in data set [1] came to 0.21 nM; in data set [2], 0.3 nM. In data set [3], the response vs control in vivo at 5 mg/kg was 189%.

As to `N=C(N)Nc1ccc(C(=O)Oc2ccc(CCC(=O)N(CC(=O)O)Cc3cccc(CC(=O)O)c3)c(Cl)c2)cc1` [Example 78], the values for the IC50 in data set [1] and in data set [2] were 0.49 nM and 0.39 nM, respectively. Besides, the response vs control in vivo at 5 mg/kg in data set [3] was determined as 167%.

For the compound `CC(C)(Oc1ccc(C[C@H](NC(=O)CCc2ccc(OC(=O)c3ccc(NC(=N)N)cc3)cc2Cl)C(=O)O)cc1)C(=O)O` [Example 96], the results for the half-inhibitory concentration (IC50) in data set [1] and in data set [2] were 0.22 nM and 0.46 nM, respectively. The response vs control in vivo at 5 mg/kg in data set [3] was 202%.

Turning to `N=C(N)Nc1ccc(C(=O)Oc2ccc(CCC(=O)N(CC(=O)O)Cc3cccc(C(=O)O)c3)c(Cl)c2)cc1` [Example 36], the figures for the IC50 in data set [1] and in data set [2] were 0.43 nM and 0.38 nM, respectively. In addition, the response vs control in vivo at 5 mg/kg in data set [3] came out at 192%.

Take `N=C(N)Nc1ccc(C(=O)Oc2ccc(CCC(=O)NCc3ccccc3C(=O)O)c(Cl)c2)cc1` [Example 52]: the IC50 in data set [1] came out at 0.3 nM; in data set [2], 0.39 nM. Also, the response vs control in vivo at 5 mg/kg in data set [3] was found to be 182%.

Turning to `N=C(N)Nc1ccc(C(=O)Oc2ccc3nc(C(=O)N(CC(=O)O)Cc4cccc(C(=O)O)c4)ccc3c2)cc1` [Example 59], the IC50 in data set [1] was 0.27 nM; in data set [2], 0.31 nM. Besides, the response vs control in vivo at 5 mg/kg in data set [3] stood at 217%.

Turning to `N=C(N)Nc1ccc(C(=O)Oc2ccc(CCC(=O)N(CCC(=O)O)Cc3cccc(C(=O)O)c3)c(Cl)c2)cc1` [Example 45], the half-maximal inhibitory concentration (IC50) stood at 0.57 nM in data set [1] and 0.66 nM in data set [2]. Further, in data set [3], the response vs control in vivo at 5 mg/kg turned out to be 165%.

As to `N=C(N)Nc1ccc(C(=O)Oc2ccc(CC(=O)N[C@@H](Cc3ccc(OCC(=O)O)cc3)C(=O)O)c(Cl)c2)cc1` [Example 56], the IC50 in data set [1] is 0.88 nM; in data set [2] it was 0.64 nM. Moreover, the response vs control in vivo at 5 mg/kg in data set [3] is 202%.

In the case of `N=C(N)Nc1ccc(C(=O)Oc2ccc(CCC(=O)N(CC(=O)O)Cc3cc(C(=O)O)cc(C(=O)O)c3)c(Cl)c2)cc1` [Example 64], the IC50 turned out to be 0.37 nM in data set [1] and 0.7 nM in data set [2]. Further, the response vs control in vivo at 5 mg/kg in data set [3] is 198%.

For the compound `CC(C(=O)N(CC(=O)O)Cc1cccc(C(=O)O)c1)c1ccc(OC(=O)c2ccc(NC(=N)N)cc2)cc1Cl` (stereo not drawn) [Example 5, 3-{[(2-{4-[(4-carbamimidamidobenzoyl)oxy]-2-chlorophenyl}propanoyl)(carboxymethyl)amino]methyl}benzoic acid], the melting point came to 208 °C.

`N=C(N)Nc1ccc(C(=O)Oc2ccc(CCC(=O)N(CC(=O)O)Cc3cccc(C(=O)O)c3)c(Cl)c2)cc1` (as salt: mesylate) [Example 3, 3-{[(3-{4-[(4-carbamimidamidobenzoyl)oxy]-2-chlorophenyl}propanoyl)(carboxymethyl)amino]methyl}benzoic acid mesylate] registered a melting point of 197 °C.

`CC(C)(Oc1ccc(C[C@H](NC(=O)Cc2ccc(OC(=O)c3ccc(NC(=N)N)cc3)cc2Cl)C(=O)O)cc1)C(=O)O` [Example 95]: the results for the IC50 in data set [1] and in data set [2] were 0.66 nM and 0.64 nM, respectively. Moreover, the response vs control in vivo at 5 mg/kg in data set [3] was 188%.
